Source: patent US10689377B2 (Mirati Therapeutics, Inc., priority 2017, dated 2020)

What was measured:
[1] = molecular target: KRas G12C (Homo sapiens, UniProt P01116, C118S/C51S/C80L/G12C); test: KRas G12C Modification Assay (LCMS detection of covalent adduct); format: binding; details: normalized percent of control; 5 μM concentration for 3 hours
In short: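 Intact protein analysed by LC/MS with deconvolution; unmodified protein signal normalized to no-compound control and reported as percent of control (POC).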

[2] = molecular target: KRas G12C (Homo sapiens, UniProt P01116, G12C); test: Cellular inhibition of KRas G12C measured by Phospho-ERK in NCI-H358 cells; format: cell-based; details: pERK(Thr202/Tyr204) normalized with GAPDH, NCI-H358 cells, 3 hours; read-out: IC50
In short: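 Ratio of phospho-ERK(Thr202/Tyr204) to GAPDH, read by near-infrared secondary antibodies on fixed, permeabilised NCI-H358 cells, expressed relative to DMSO control. Compound exposure was 3 h at 0.5% DMSO. IC50 values come from 4-parameter curve fits.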

C=CC(=O)N1CCN(c2nc(OC[C@@H]3CCCN3C)nc3c2CCN(c2c(C)c(C)cc4[nH]ncc24)C3)C[C@@H]1CC#N [Example 462, 2-[(2S)-4-[7-(5,6-dimethyl-1H-indazol-4-yl)-2-[[(2S)-1-methylpyrrolidin-2-yl]methoxy]-6,8-dihydro-5H-pyrido[3,4-d]pyrimidin-4-yl]-1-prop-2-enoyl-piperazin-2-yl]acetonitrile]
POC [1]: C (“C”>50% POC) | IC50 [2]: 0.0001 to 1 µM

C=CC(=O)N1CCN(c2nc(OC[C@@H]3CCCN3C)nc3c2CCN(c2c(C)c(C)cc4[nH]ccc24)C3)C[C@@H]1CC#N [Example 466, 2-((S)-1-acryloyl-4-(7-(5,6-dimethyl-1H-indol-4-yl)-2-(((S)-1-methylpyrrolidin-2-yl)methoxy)-5,6,7,8-tetrahydropyrido[3,4-d]pyrimidin-4-yl)piperazin-2-yl)acetonitrile]
POC [1]: C (“C”>50% POC) | IC50 [2]: 0.0001 to 1 µM

CN1CCC[C@H]1COc1nc2c(c(N3CCN(C(=O)/C=C/CN4CCC(F)(F)C4)[C@@H](CC#N)C3)n1)CCN(c1cccc(Cl)c1C(F)(F)F)C2 [Example 471, 2-[(2S)-4-[7-[3-chloro-2-(trifluoromethyl)phenyl]-2-[[(2S)-1-methylpyrrolidin-2-yl]methoxy]-6,8-dihydro-5H-pyrido[3,4-d]pyrimidin-4-yl]-1-[(E)-4-(3,3-difluoropyrrolidin-1-yl)but-2-enoyl]piperazin-2-yl]acetonitrile]
POC [1]: C (“C”>50% POC) | IC50 [2]: > 1 µM

[2H]C([2H])=C([2H])C(=O)N1CCN(c2nc(OC[C@@H]3CCCN3C)nc3c2CCN(c2cccc4ccccc24)C3)C[C@@H]1CC#N [Example 475, 2-[(2S)-4-[2-[[(2S)-1-methylpyrrolidin-2-yl]methoxy]-7-(1-naphthyl)-6,8-dihydro-5H-pyrido[3,4-d]pyrimidin-4-yl]-1-(2,3,3-trideuterioprop-2-enoyl)piperazin-2-yl]acetonitrile]
POC [1]: C (“C”>50% POC) | IC50 [2]: 0.0001 to 1 µM

Cc1cccc2cccc(N3CCc4c(nc(OC[C@@H]5CCCN5C)nc4N4CCN(C(=O)/C=C/c5cccnc5)[C@@H](CC#N)C4)C3)c12 [Example 496, 2-((S)-4-(7-(8-methylnaphthalen-1-yl)-2-(((S)-1-methylpyrrolidin-2-yl)methoxy)-5,6,7,8-tetrahydropyrido[3,4-d]pyrimidin-4-yl)-1-((E)-3-(pyridin-3-yl)acryloyl)piperazin-2-yl)acetonitrile]
POC [1]: C (“C”>50% POC) | IC50 [2]: 0.0001 to 1 µM

Cc1cccc2cccc(N3CCc4c(nc(OC[C@@H]5CC(F)(F)CN5C)nc4N4CCN(C(=O)/C=C/CF)[C@@H](CC#N)C4)C3)c12 [Example 529, 2-((S)-4-(2-(((S)-4,4-difluoro-1-methylpyrrolidin-2-yl)methoxy)-7-(8-methylnaphthalen-1-yl)-5,6,7,8-tetrahydropyrido[3,4-d]pyrimidin-4-yl)-1-((E)-4-fluorobut-2-enoyl)piperazin-2-yl)acetonitrile]
POC [1]: C (“C”>50% POC) | IC50 [2]: 0.0001 to 1 µM

C=C(F)C(=O)N1CCN(c2nc(OC[C@@H]3CC(F)(F)CN3C)nc3c2CCN(c2cccc4cccc(C)c24)C3)C[C@@H]1CC#N [Example 530, 2-((S)-4-(2-(((S)-4,4-difluoro-1-methylpyrrolidin-2-yl)methoxy)-7-(8-methylnaphthalen-1-yl)-5,6,7,8-tetrahydropyrido[3,4-d]pyrimidin-4-yl)-1-(2-fluoroacryloyl)piperazin-2-yl)acetonitrile]
POC [1]: C (“C”>50% POC) | IC50 [2]: 0.0001 to 1 µM

C=C(F)C(=O)N1CCN(c2nc(OC[C@@H]3CC(F)(F)CN3C)nc3c2CCN(c2cccc4cccc(Cl)c24)C3)C[C@@H]1CC#N [Example 543]
POC [1]: C (“C”>50% POC) | IC50 [2]: 0.0001 to 1 µM

COC/C=C/C(=O)N1CCN(c2nc(OC[C@H]3CCCN3C)nc3c2CCN(c2cccc4cccc(C)c24)C3)C[C@@H]1CC#N [Example 554, 2-[(2S)-1-[(E)-4-Methoxybut-2-enoyl]-4-[7-(8-methyl-1-naphthyl)-2-[[(2R)-1-methylpyrrolidin-2-yl]methoxy]-6,8-dihydro-5H-pyrido[3,4-d]pyrimidin-4-yl]piperazin-2-yl] acetonitrile]
POC [1]: C (“C”>50% POC) | IC50 [2]: 0.0001 to 1 µM

C=C(F)C(=O)N1CCN(c2nc(OC[C@@H]3CCCN3C)nc3c2CCN(c2c(C(F)(F)F)c(C)cc4[nH]ncc24)C3)C[C@@H]1CC#N [Example 555, 2-((S)-1-(2-Fluoroacryloyl)-4-(7-(6-methyl-5-(trifluoromethyl)-1H-indazol-4-yl)-2-(((S)-1-methylpyrrolidin-2-yl)methoxy)-5,6,7,8-tetrahydropyrido [3,4-d]pyrimidin-4-yl)piperazin-2-yl)acetonitrile]
POC [1]: C (“C”>50% POC) | IC50 [2]: 0.0001 to 1 µM

C=C(F)C(=O)N1CCN(c2nc(OC[C@@H]3CCCN3C)nc3c2CCN(c2cc(O)cc4ccccc24)C3)C[C@@H]1CC#N [Example 556, 2-[(2S)-1-(2-Fluoroprop-2-enoyl)-4-[7-(3-hydroxy-1-naphthyl)-2-[[(2S)-1-methylpyrrolidin-2-yl]methoxy]-6,8-dihydro-5H-pyrido[3,4-d]pyrimidin-4-yl]piperazin-2-yl]acetonitrile]
POC [1]: C (“C”>50% POC) | IC50 [2]: 0.0001 to 1 µM

C=C(F)C(=O)N1CCN(c2nc(OC[C@H]3C[C@@H](F)CN3C)nc3c2CCN(c2cccc4cccc(Cl)c24)C3)C[C@@H]1CC#N [Example 558, 2-((S)-4-(7-(8-Chloronaphthalen-1-yl)-2-(((2R,4R)-4-fluoro-1-methylpyrrolidin-2-yl)methoxy)-5,6,7,8-tetrahydropyrido[3,4-d]pyrimidin-4-yl)-1-(2-fluoroacryloyl)piperazin-2-yl)acetonitrile]
POC [1]: C (“C”>50% POC) | IC50 [2]: 0.0001 to 1 µM

C=C(F)C(=O)N1CCN(c2nc(OCCN(C)C)nc3c2CCN(c2cccc4cccc(C)c24)C3)C[C@@H]1CC#N [Example 559, 2-[(2S)-4-[2-[2-(Dimethylamino)ethoxy]-7-(8-methyl-1-naphthyl)-6,8-dihydro-5H-pyrido[3,4-d]pyrimidin-4-yl]-1-(2-fluoroprop-2-enoyl)piperazin-2-yl]acetonitrile]
POC [1]: C (“C”>50% POC) | IC50 [2]: 0.0001 to 1 µM

C=C(F)C(=O)N1CCN(c2nc(OC[C@@H]3C[C@@H](F)CN3C)nc3c2CCN(c2cccc4cccc(C)c24)C3)C[C@@H]1CC#N [Example 560, 2-[(2S)-4-[2-[[(2S,4R)-4-Fluoro-1-methyl-pyrrolidin-2-yl]methoxy]-7-(8-methyl-1-naphthyl)-6,8-dihydro-5H-pyrido[3,4-d]pyrimidin-4-yl]-1-(2-fluoroprop-2-enoyl)piperazin-2-yl]acetonitrile]
POC [1]: C (“C”>50% POC) | IC50 [2]: 0.0001 to 1 µM

C=C(F)C(=O)N1CCN(c2nc(OC[C@@H]3C[C@@H](OC)CN3C)nc3c2CCN(c2cccc4cccc(C)c24)C3)C[C@@H]1CC#N [Example 561, 2-[(2S)-1-(2-Fluoroprop-2-enoyl)-4-[2-[[(2S,4R)-4-methoxy-1-methyl-pyrrolidin-2-yl]methoxy]-7-(8-methyl-1-naphthyl)-6,8-dihydro-5H-pyrido[3,4-d]pyrimidin-4-yl]piperazin-2-yl]acetonitrile]
POC [1]: C (“C”>50% POC) | IC50 [2]: 0.0001 to 1 µM

C=C(F)C(=O)N1CCN(c2nc(OC[C@@H]3CCN(C)C3)nc3c2CCN(c2cccc4cccc(C)c24)C3)C[C@@H]1CC#N [Example 562, 2-[(2S)-1-(2-Fluoroprop-2-enoyl)-4-[7-(8-methyl-1-naphthyl)-2-[[(3R)-1-methylpyrrolidin-3-yl]methoxy]-6,8-dihydro-5H-pyrido[3,4-d]pyrimidin-4-yl]piperazin-2-yl]acetonitrile]
POC [1]: C (“C”>50% POC) | IC50 [2]: 0.0001 to 1 µM

Cc1cccc2cccc(N3CCc4c(nc(OC[C@H]5CCCN5C)nc4N4CCN(C(=O)/C=C/CF)[C@@H](CC#N)C4)C3)c12 [Example 563, 2-[(2S)-1-[(E)-4-Fluorobut-2-enoyl]-4-[7-(8-methyl-1-naphthyl)-2-[[(2R)-1-methylpyrrolidin-2-yl]methoxy]-6,8-dihydro-5H-pyrido[3,4-d]pyrimidin-4-yl]piperazin-2-yl]acetonitrile]
POC [1]: C (“C”>50% POC) | IC50 [2]: 0.0001 to 1 µM

C=C(F)C(=O)N1CCN(c2nc(OCCCN3C[C@@H]4C[C@H]3CO4)nc3c2CCN(c2cccc4cccc(Cl)c24)C3)C[C@@H]1CC#N [Example 564, 2-[(2S)-4-[7-(8-Chloro-1-naphthyl)-2-[3-[(1S,4S)-2-oxa-5-azabicyclo[2.2.1]heptan-5-yl]propoxy]-6,8-dihydro-5H-pyrido[3,4-d]pyrimidin-4-yl]-1-(2-fluoroprop-2-enoyl)piperazin-2-yl]acetonitrile]
POC [1]: C (“C”>50% POC) | IC50 [2]: 0.0001 to 1 µM

Cc1cccc2cccc(N3CCc4c(nc(OCCCN5C[C@@H]6C[C@H]5CO6)nc4N4CCN(C(=O)/C=C/CF)[C@@H](CC#N)C4)C3)c12 [Example 565, 2-[(2S)-1-[(E)-4-Fluorobut-2-enoyl]-4-[7-(8-methyl-1-naphthyl)-2-[3-[(1S,4S)-2-oxa-5-azabicyclo[2.2.1]heptan-5-yl]propoxy]-6,8-dihydro-5H-pyrido[3,4-d]pyrimidin-4-yl]piperazin-2-yl]acetonitrile]
POC [1]: C (“C”>50% POC) | IC50 [2]: 0.0001 to 1 µM

C=C(F)C(=O)N1CCN(c2nc(OCCCN3C[C@@H]4C[C@H]3CO4)nc3c2CCN(c2cccc4cccc(C)c24)C3)C[C@@H]1CC#N [Example 566, 2-[(2S)-1-(2-Fluoroprop-2-enoyl)-4-[7-(8-methyl-1-naphthyl)-2-[3-[(1S,4S)-2-oxa-5-azabicyclo[2.2.1]heptan-5-yl]propoxy]-6,8-dihydro-5H-pyrido[3,4-d]pyrimidin-4-yl]piperazin-2-yl]acetonitrile]
POC [1]: C (“C”>50% POC) | IC50 [2]: 0.0001 to 1 µM
